Entries after “also recorded” stand apart in the source; their conditions may differ.
Target: T1, hTAS1R1 D192F/rTAS1R3 (UniProt Q7RTX1+Q923K1, D192F)
T1 construct: The cDNA coding region of rTAS1R3 was synthesized with optimized-codon usage for human expression; expressed in transfected cells; host or cells: HEK293T/17
T1 sequence (Q7RTX1 21-841 D192F): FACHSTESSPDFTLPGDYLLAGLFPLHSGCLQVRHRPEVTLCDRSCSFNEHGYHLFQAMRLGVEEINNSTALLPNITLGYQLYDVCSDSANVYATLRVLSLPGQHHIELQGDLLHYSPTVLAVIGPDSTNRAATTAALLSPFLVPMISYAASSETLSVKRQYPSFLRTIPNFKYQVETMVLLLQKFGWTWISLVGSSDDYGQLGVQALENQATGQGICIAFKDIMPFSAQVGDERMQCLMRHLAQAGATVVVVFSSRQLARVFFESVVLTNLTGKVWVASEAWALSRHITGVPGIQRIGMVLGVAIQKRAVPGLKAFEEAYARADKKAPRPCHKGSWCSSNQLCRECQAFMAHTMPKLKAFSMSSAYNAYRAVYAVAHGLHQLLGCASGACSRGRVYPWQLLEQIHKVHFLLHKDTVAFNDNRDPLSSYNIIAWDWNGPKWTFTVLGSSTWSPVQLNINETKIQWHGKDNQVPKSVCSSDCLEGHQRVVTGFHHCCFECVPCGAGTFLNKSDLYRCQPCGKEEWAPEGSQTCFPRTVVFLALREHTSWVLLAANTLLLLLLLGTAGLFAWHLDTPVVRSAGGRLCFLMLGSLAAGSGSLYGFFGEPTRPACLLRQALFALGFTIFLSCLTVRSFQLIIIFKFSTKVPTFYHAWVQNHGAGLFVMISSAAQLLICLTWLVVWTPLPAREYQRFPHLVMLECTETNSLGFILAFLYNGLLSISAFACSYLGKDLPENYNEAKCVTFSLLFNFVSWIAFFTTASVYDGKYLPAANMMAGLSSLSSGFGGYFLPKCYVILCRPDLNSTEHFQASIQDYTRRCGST
T1 sequence (Q923K1 21-858): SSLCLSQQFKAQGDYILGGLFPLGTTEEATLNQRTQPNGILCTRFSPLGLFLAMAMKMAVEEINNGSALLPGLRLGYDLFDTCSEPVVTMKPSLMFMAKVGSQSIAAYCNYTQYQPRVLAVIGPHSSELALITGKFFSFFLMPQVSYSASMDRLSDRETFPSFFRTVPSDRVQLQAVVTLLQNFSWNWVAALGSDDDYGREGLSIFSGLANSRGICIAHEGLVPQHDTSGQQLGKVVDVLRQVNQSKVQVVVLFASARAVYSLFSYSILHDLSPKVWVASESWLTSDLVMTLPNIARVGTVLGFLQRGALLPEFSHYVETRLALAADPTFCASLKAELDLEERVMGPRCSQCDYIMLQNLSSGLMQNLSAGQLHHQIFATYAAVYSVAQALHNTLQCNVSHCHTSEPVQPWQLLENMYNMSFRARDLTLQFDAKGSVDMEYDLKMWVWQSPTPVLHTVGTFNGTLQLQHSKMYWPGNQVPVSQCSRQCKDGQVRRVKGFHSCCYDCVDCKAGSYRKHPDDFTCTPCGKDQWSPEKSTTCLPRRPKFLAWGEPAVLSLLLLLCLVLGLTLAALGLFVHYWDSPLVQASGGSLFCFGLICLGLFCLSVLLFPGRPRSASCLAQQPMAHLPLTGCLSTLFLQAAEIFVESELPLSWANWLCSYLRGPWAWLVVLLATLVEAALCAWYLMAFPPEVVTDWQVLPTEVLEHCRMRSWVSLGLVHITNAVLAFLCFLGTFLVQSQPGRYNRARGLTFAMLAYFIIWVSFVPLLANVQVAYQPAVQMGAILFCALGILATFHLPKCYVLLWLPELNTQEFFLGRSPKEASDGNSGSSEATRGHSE
Assay: Calcium assay, hTAS1R1 mutant co-expressed with rTAS1R3
Assay type: cell-based, human, rat
Conditions: for response to the agonist alone, vs WT: D192F

Structure (SMILES)	EC50 [mM]	response to the agonist alone, vs WT
N[C@@H](CCC(=O)N[C@@H](CS)C(=O)NCC(=O)O)C(=O)O [GSH, γ-L-glutamyl-L-cysteinyl-glycine]	> 30	fully abolished; also recorded: completely abolished
N[C@@H](CCC(=O)O)C(=O)O [L-Glu, L-glutamic acid, reference compound]		completely suppressed; also recorded: completely abolished
CCCC(CCC)NC(=O)c1ccc2c(c1)OCO2 [S807, N-(heptan-4-yl)benzo[d][1,3]dioxole-5-carboxamide, reference compound]		increased
